{"source": "patent US20250346569A1", "about": "“NEW DERIVATIVES FOR TREATING TRPM3 MEDIATED DISORDERS” (Katholieke Universiteit Leuven, priority 2022, published 2025)"}
{"biological_target": "T1, mouse TRPM3α2 (mTRPM3) ion channel (Mus musculus, UniProt J9SQF3)", "T1 construct": "expressed in transfected cells; host or cells: flip-in HEK293", "T1 sequence (J9SQF3 1-1709 isoform J9SQF3-12)": "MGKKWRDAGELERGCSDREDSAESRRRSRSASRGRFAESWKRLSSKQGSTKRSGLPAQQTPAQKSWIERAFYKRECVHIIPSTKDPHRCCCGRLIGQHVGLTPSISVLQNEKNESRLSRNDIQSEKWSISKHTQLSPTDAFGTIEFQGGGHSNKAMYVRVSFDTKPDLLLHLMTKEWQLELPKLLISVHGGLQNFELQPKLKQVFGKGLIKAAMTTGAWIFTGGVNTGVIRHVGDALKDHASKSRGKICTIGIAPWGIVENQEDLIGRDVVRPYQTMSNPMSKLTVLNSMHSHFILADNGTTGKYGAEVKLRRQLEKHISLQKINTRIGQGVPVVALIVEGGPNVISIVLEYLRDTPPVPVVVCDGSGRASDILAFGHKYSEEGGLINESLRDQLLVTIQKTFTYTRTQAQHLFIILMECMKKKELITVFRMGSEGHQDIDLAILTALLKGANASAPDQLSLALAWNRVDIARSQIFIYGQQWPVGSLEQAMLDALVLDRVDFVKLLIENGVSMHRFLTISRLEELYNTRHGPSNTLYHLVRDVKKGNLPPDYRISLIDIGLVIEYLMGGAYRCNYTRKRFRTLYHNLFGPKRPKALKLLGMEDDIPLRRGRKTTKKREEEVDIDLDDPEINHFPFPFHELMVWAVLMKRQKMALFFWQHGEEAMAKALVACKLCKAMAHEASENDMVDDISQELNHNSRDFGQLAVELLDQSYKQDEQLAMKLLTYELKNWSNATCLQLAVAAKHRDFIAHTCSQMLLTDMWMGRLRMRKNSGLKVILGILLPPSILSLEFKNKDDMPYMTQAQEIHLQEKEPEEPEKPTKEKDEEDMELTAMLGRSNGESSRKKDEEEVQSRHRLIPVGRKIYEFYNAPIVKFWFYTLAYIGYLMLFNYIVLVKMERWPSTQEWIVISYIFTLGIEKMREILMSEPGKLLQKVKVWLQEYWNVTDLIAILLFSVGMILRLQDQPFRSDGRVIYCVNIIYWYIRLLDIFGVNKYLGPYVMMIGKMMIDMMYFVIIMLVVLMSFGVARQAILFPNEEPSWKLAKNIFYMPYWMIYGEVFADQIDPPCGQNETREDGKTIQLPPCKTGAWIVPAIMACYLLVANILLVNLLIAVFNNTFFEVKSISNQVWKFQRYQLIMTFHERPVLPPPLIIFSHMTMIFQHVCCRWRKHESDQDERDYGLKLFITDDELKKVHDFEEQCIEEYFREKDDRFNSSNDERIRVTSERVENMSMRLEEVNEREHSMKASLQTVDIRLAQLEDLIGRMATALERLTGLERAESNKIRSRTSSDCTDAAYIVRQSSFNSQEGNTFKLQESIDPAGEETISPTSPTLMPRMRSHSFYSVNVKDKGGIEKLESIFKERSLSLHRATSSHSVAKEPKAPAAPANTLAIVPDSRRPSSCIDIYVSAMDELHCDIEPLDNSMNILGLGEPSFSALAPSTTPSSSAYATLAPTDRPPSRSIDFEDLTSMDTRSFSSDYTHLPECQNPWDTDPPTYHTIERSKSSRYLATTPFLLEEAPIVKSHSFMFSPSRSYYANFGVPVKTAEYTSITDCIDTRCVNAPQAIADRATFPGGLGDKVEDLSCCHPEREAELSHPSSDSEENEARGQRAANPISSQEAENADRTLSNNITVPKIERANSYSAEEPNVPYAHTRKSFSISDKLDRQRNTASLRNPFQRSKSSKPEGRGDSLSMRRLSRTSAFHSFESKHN", "test": "Monitoring the TRPM3 ion channel driven Ca2+ uptake (Fluo-4 AM assay)", "type": "cell-based", "conditions": "TRPM3 overexpressing flip-in HEK293 cells, channel stimulated with Pregnenolone sulfate (PS) 50 μM", "method_in_brief": "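Flp-In HEK293 cells overexpressing mTRPM3α2, loaded with Fluo-4 AM and added to wells holding compound plus 50 μM pregnenolone sulfate in Ca2+-containing Krebs buffer. Fluorescence (ex 485/em 535) read right after cell addition. Inhibition normalised to vehicle and positive-control inhibitor; IC50 derived.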", "units": {"IC50": "nM"}}
{"molecule": "Cc1ncsc1COc1ccc2sc(C)c(C(=O)NC3CN(C)CC3(F)F)c2c1", "note": "(stereo not shown) [Cpd 122, N-(4,4-difluoro-1-methylpyrrolidin-3-yl)-2-methyl-5-[(4-methyl-1,3-thiazol-5-yl)methoxy]-1-benzothiophene-3-carboxamide]", "IC50": "< 1000"}
{"molecule": "Cc1sc2ccc(OCc3ccccc3)cc2c1C(=O)NC1CCN(C)C1", "note": "(stereo not shown) [Cpd 123, 5-(benzyloxy)-2-methyl-N-(1-methylpyrrolidin-3-yl)-1-benzothiophene-3-carboxamide]", "IC50": "< 1000"}
{"molecule": "CN1CCC(NC(=O)c2c(C(F)F)sc3ccc(OCc4ccccc4)cc23)C1", "note": "(stereo not shown) [Cpd 124, 5-(benzyloxy)-2-(difluoromethyl)-N-(1-methylpyrrolidin-3-yl)-1-benzothiophene-3-carboxamide]", "IC50": "1000 to 20000"}
{"molecule": "Cc1sc2ccc(OCc3cccnc3C(F)(F)F)cc2c1C(=O)NC1CCN(C)C1", "note": "(stereo not shown) [Cpd 125, 2-methyl-N-(1-methylpyrrolidin-3-yl)-5-{[2-(trifluoromethyl)pyridin-3-yl]methoxy}-1-benzothiophene-3-carboxamide]", "IC50": "< 1000"}
{"molecule": "Cc1ncsc1COc1ccc2sc(C)c(C(=O)NC3CCN(C)C3)c2c1", "note": "(stereo not shown) [Cpd 126, 2-methyl-5-[(4-methyl-1,3-thiazol-5-yl)methoxy]-N-(1-methylpyrrolidin-3-yl)-1-benzothiophene-3-carboxamide]", "IC50": "< 1000"}
{"molecule": "Cc1sc2ccc(OCc3ccccc3)cc2c1C(=O)NC1CCN(C)CC1", "note": "[Cpd 127, 5-(benzyloxy)-2-methyl-N-(1-methylpiperidin-4-yl)-1-benzothiophene-3-carboxamide]", "IC50": "1000 to 20000"}
{"molecule": "CN1CCC(NC(=O)c2c(C(F)F)sc3ccc(OCc4ccccc4)cc23)CC1", "note": "[Cpd 128, 5-(benzyloxy)-2-(difluoromethyl)-N-(1-methylpiperidin-4-yl)-1-benzothiophene-3-carboxamide]", "IC50": "1000 to 20000"}
{"molecule": "Cc1sc2ccc(OCc3cccnc3C(F)(F)F)cc2c1C(=O)NC1CCN(C)CC1", "note": "[Cpd 129, 2-methyl-N-(1-methylpiperidin-4-yl)-5-{[2-(trifluoromethyl)pyridin-3-yl]methoxy}-1-benzothiophene-3-carboxamide]", "IC50": "< 1000"}
{"molecule": "Cc1ncsc1COc1ccc2sc(C)c(C(=O)NC3CCN(C)CC3)c2c1", "note": "[Cpd 130, 2-methyl-5-[(4-methyl-1,3-thiazol-5-yl)methoxy]-N-(1-methylpiperidin-4-yl)-1-benzothiophene-3-carboxamide]", "IC50": "1000 to 20000"}
{"molecule": "Cn1ccc(NC(=O)c2c(C(F)F)sc3ccc(OCc4ccccc4)cc23)n1", "note": "[Cpd 131, 5-(benzyloxy)-2-(difluoromethyl)-N-(1-methyl-1H-pyrazol-3-yl)-1-benzothiophene-3-carboxamide]", "IC50": "1000 to 20000"}
{"molecule": "CNC(=O)c1c(C)sc2ccc(OCc3ccccc3)cc12", "note": "[Cpd 134, 5-(benzyloxy)-N,2-dimethyl-1-benzothiophene-3-carboxamide]", "IC50": "> 20000"}
{"molecule": "CNC(=O)c1c(C(F)F)sc2ccc(OCc3ccccc3)cc12", "note": "[Cpd 135, 5-(benzyloxy)-2-(difluoromethyl)-N-methyl-1-benzothiophene-3-carboxamide]", "IC50": "> 20000"}
{"molecule": "CNC(=O)c1c(C)sc2ccc(OCc3cccnc3C(F)(F)F)cc12", "note": "[Cpd 136, N,2-dimethyl-5-{[2-(trifluoromethyl)pyridin-3-yl]methoxy}-1-benzothiophene-3-carboxamide]", "IC50": "< 1000"}
{"molecule": "CNC(=O)c1c(C)sc2ccc(OCc3scnc3C)cc12", "note": "[Cpd 137, N,2-dimethyl-5-[(4-methyl-1,3-thiazol-5-yl)methoxy]-1-benzothiophene-3-carboxamide]", "IC50": "1000 to 20000"}
{"molecule": "COc1ncccc1COc1ccc2sc(C)c(C(=O)N[C@@H](C)C(N)=O)c2c1", "note": "[Cpd 138, (2S)-2-({5-[(2-methoxypyridin-3-yl)methoxy]-2-methyl-1-benzothiophen-3-yl}formamido)propanamide]", "IC50": "< 1000"}
{"molecule": "COc1ncccc1COc1ccc2sc(C)c(C(=O)N[C@@H](CO)C(N)=O)c2c1", "note": "[Cpd 139, (2S)-3-hydroxy-2-({5-[(2-methoxypyridin-3-yl)methoxy]-2-methyl-1-benzothiophen-3-yl}formamido)propanamide]", "IC50": "< 1000"}
{"molecule": "COc1ncccc1COc1ccc2sc(C)c(C(=O)N[C@H](C)C(N)=O)c2c1", "note": "[Cpd 140, (2R)-2-({5-[(2-methoxypyridin-3-yl)methoxy]-2-methyl-1-benzothiophen-3-yl}formamido)propanamide]", "IC50": "< 1000"}
{"molecule": "COc1ncccc1COc1ccc2sc(C)c(C(=O)NC(C)(C)C(N)=O)c2c1", "note": "[Cpd 141, 2-({5-[(2-methoxypyridin-3-yl)methoxy]-2-methyl-1-benzothiophen-3-yl}formamido)-2-methylpropanamide]", "IC50": "< 1000"}
{"molecule": "COc1ncccc1COc1ccc2sc(C)c(C(=O)NC3(CO)CC3)c2c1", "note": "[Cpd 142, N-[1-(hydroxymethyl)cyclopropyl]-5-[(2-methoxypyridin-3-yl)methoxy]-2-methyl-1-benzothiophene-3-carboxamide]", "IC50": "1000 to 20000"}
{"molecule": "COc1ncccc1COc1ccc2sc(C)c(C(=O)NC3(CO)CCC3)c2c1", "note": "[Cpd 143, N-[1-(hydroxymethyl)cyclobutyl]-5-[(2-methoxypyridin-3-yl)methoxy]-2-methyl-1-benzothiophene-3-carboxamide]", "IC50": "< 1000"}
{"molecule": "COc1ncccc1COc1ccc2sc(C)c(C(=O)NC3(CO)CCOCC3)c2c1", "note": "[Cpd 144, N-[4-(hydroxymethyl)oxan-4-yl]-5-[(2-methoxypyridin-3-yl)methoxy]-2-methyl-1-benzothiophene-3-carboxamide]", "IC50": "1000 to 20000"}
{"molecule": "O=C(NC1CC(F)(F)C1)c1c(C(F)F)sc2ccc(OCc3ccccc3)cc12", "note": "[Cpd 145, 5-(benzyloxy)-N-(3,3-difluorocyclobutyl)-2-(difluoromethyl)-1-benzothiophene-3-carboxamide]", "IC50": "> 20000"}
{"molecule": "O=C(NC1CCNC1=O)c1c(C(F)F)sc2ccc(OCc3ccccc3)cc12", "note": "(stereo not shown) [Cpd 146, 5-(benzyloxy)-2-(difluoromethyl)-N-(2-oxopyrrolidin-3-yl)-1-benzothiophene-3-carboxamide]", "IC50": "< 1000"}
{"molecule": "O=C(NC1CCOC1)c1c(C(F)F)sc2ccc(OCc3ccccc3)cc12", "note": "(stereo not shown) [Cpd 147, 5-(benzyloxy)-2-(difluoromethyl)-N-(oxolan-3-yl)-1-benzothiophene-3-carboxamide]", "IC50": "1000 to 20000"}
{"molecule": "O=C1CCC(CNC(=O)c2c(C(F)F)sc3ccc(OCc4ccccc4)cc23)N1", "note": "(stereo not shown) [Cpd 148, 5-(benzyloxy)-2-(difluoromethyl)-N-[(5-oxopyrrolidin-2-yl)methyl]-1-benzothiophene-3-carboxamide]", "IC50": "> 20000"}
{"molecule": "O=C(NCCN1CCOC1=O)c1c(C(F)F)sc2ccc(OCc3ccccc3)cc12", "note": "[Cpd 149, 5-(benzyloxy)-2-(difluoromethyl)-N-[2-(2-oxo-1,3-oxazolidin-3-yl)ethyl]-1-benzothiophene-3-carboxamide]", "IC50": "> 20000"}
{"molecule": "O=C(O)c1c(C(F)F)sc2ccc(OCc3ccccc3)cc12", "note": "[Cpd 150, 5-(benzyloxy)-2-(difluoromethyl)-1-benzothiophene-3-carboxylic acid]", "IC50": "< 1000"}
{"molecule": "O=C(NCc1cccc(O)n1)c1c(C(F)F)sc2ccc(OCc3ccccc3)cc12", "note": "[Cpd 151, 5-(benzyloxy)-2-(difluoromethyl)-N-[(6-hydroxypyridin-2-yl)methyl]-1-benzothiophene-3-carboxamide]", "IC50": "> 20000"}
{"molecule": "O=C(NC1(CO)CCOCC1)c1c(C(F)F)sc2ccc(OCc3ccccc3)cc12", "note": "[Cpd 152, 5-(benzyloxy)-2-(difluoromethyl)-N-[4-(hydroxymethyl)oxan-4-yl]-1-benzothiophene-3-carboxamide]", "IC50": "> 20000"}
{"system": "not given", "test": "not given", "conditions": "rat pain model; cited from earlier work"}
{"molecule": "O=C1C[C@@H](c2ccc(O)cc2)Oc2cc(O)ccc21", "note": "[Liquiritigenin]", "mechanical and cold hyperalgesia": "decrease mechanical and cold hyperalgesia"}
{"system": "TRPM3", "test": "not given", "conditions": "wild type mice vs knock-out TRPM3 mice; cited from earlier work"}
{"molecule": "pregnenolone sulfate", "pain": "evoked pain in wild type mice but not in knock-out TRPM3 mice"}
